From PubChem BioAssay AID328 (DTP/NCI, 2004)
“And” between values parts separate entries of the source, which are not always exact repeats. Identical values can stand only once. Inconclusive results and toxic doses are left out.

Test system: BDF1 mice, P388 leukemia ip, median survival T/C
Assay: NCI In Vivo Anticancer Drug Screen. Data for tumor model P388 Leukemia (intraperitoneal) in B6D2F1 (BDF1) mice
Conditions: endpoint: median survival time, higher = longer survival
In short: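 Compound-treated tumour-bearing mice were compared with vehicle-treated controls. Survival was recorded, and the value is the treated-group measurement divided by the control-group measurement (T/C).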

`O=c1[nH]cc(F)c(=O)[nH]1` was tested. Which T/C (dose: 5.0 mg/kg/injection, schedule: Q03HX024 (ip), vehicle: saline) did it give?
Its T/C is 210 % of control.

And the T/C (dose: 7.5 mg/kg/injection, schedule: Q01DX009 (ip), vehicle: saline)?
The T/C was 166 % of control and 179 % of control and 184 % of control.

What about the T/C (dose: 7.5 mg/kg/injection, schedule: Q03HX024 (ip), vehicle: saline) of the same compound?
The T/C was 219 % of control.

What about the T/C (dose: 8.0 mg/kg/injection, schedule: Q01DX005 (ip), vehicle: saline) of the same compound?
The T/C was 163 % of control.

What about the T/C (dose: 9.4 mg/kg/injection, schedule: Q04DX003 (ip), vehicle: saline) of the same compound?
Its T/C is 120 % of control.

What about the T/C (dose: 10.0 mg/kg/injection, schedule: Q01DX010 (ip), vehicle: acetone) of the same compound?
Its T/C is 95 % of control.

What about the T/C (dose: 10.0 mg/kg/injection, schedule: Q03HX024 (ip), vehicle: saline) of the same compound?
Its T/C is 233 % of control.

What about the T/C (dose: 11.0 mg/kg/injection, schedule: Q01DX009 (ip), vehicle: saline) of the same compound?
The T/C was 211 % of control.

What about the T/C (dose: 13.0 mg/kg/injection, schedule: Q01DX009 (ip), vehicle: saline) of the same compound?
The T/C was 122 % of control.

And the T/C (dose: 13.2 mg/kg/injection, schedule: Q01DX009 (ip), vehicle: saline)?
The T/C was 250 % of control.

What about the T/C (dose: 13.3 mg/kg/injection, schedule: Q01DX009 (ip), vehicle: Klucel (hydroxypropylcellulose) (HPC)) of the same compound?
The T/C was 150 % of control.

What about the T/C (dose: 13.3 mg/kg/injection, schedule: Q01DX009 (ip), vehicle: saline sonified) of the same compound?
The T/C was 181 % of control.

And the T/C (dose: 14.0 mg/kg/injection, schedule: Q01DX009 (ip), vehicle: saline)?
Its T/C is 169 % of control.

And the T/C (dose: 15.0 mg/kg/injection, schedule: Q03HX024 (ip), vehicle: saline)?
The T/C was 254 % of control.

And the T/C (dose: 16.0 mg/kg/injection, schedule: Q01DX005 (ip), vehicle: saline)?
The T/C was 170 % of control.

What about the T/C (dose: 16.0 mg/kg/injection, schedule: Q01DX009 (ip), vehicle: saline) of the same compound?
The T/C was 228 % of control and 169 % of control.

And the T/C (dose: 20.0 mg/kg/injection, schedule: Q01DX005 (ip), vehicle: water)?
Its T/C is 205 % of control.

And the T/C (dose: 20.0 mg/kg/injection, schedule: Q01DX009 (ip), vehicle: Klucel (hydroxypropylcellulose) (HPC))?
The T/C was 100 % of control.

And the T/C (dose: 20.0 mg/kg/injection, schedule: Q01DX009 (ip), vehicle: saline sonified)?
The T/C was 113 % of control.

What about the T/C (dose: 20.0 mg/kg/injection, schedule: Q01DX010 (ip), vehicle: acetone) of the same compound?
The T/C was 213 % of control.

And the T/C (dose: 20.0 mg/kg/injection, schedule: Q04DX003 (ip), vehicle: saline)?
Its T/C is 166 % of control.

And the T/C (dose: 22.5 mg/kg/injection, schedule: Q03HX024 (ip), vehicle: saline)?
The T/C was 112 % of control.

What about the T/C (dose: 23.0 mg/kg/injection, schedule: Q01DX009 (ip), vehicle: saline) of the same compound?
Its T/C is 205 % of control.

And the T/C (dose: 24.0 mg/kg/injection, schedule: Q01DX009 (ip), vehicle: saline)?
Its T/C is 243 % of control.

What about the T/C (dose: 25.0 mg/kg/injection, schedule: Q04DX003 (ip), vehicle: water) of the same compound?
The T/C was 150 % of control.

What about the T/C (dose: 26.0 mg/kg/injection, schedule: Q04DX003 (ip), vehicle: saline) of the same compound?
Its T/C is 96 % of control and 111 % of control.

And the T/C (dose: 27.0 mg/kg/injection, schedule: Q01DX009 (ip), vehicle: Klucel (hydroxypropylcellulose) (HPC))?
Its T/C is 166 % of control.

What about the T/C (dose: 27.0 mg/kg/injection, schedule: Q01DX009 (ip), vehicle: saline sonified) of the same compound?
Its T/C is 181 % of control.

And the T/C (dose: 27.0 mg/kg/injection, schedule: Q04DX003 (ip), vehicle: saline)?
The T/C was 154 % of control.

What about the T/C (dose: 32.0 mg/kg/injection, schedule: Q01DX005 (ip), vehicle: saline) of the same compound?
The T/C was 185 % of control.

And the T/C (dose: 36.0 mg/kg/injection, schedule: Q04DX003 (ip), vehicle: saline)?
Its T/C is 153 % of control and 165 % of control.

What about the T/C (dose: 39.0 mg/kg/injection, schedule: Q01DX009 (ip), vehicle: saline) of the same compound?
The T/C was 87 % of control.

And the T/C (dose: 40.0 mg/kg/injection, schedule: Q01DX005 (ip), vehicle: water)?
Its T/C is 185 % of control.

What about the T/C (dose: 40.0 mg/kg/injection, schedule: Q01DX010 (ip), vehicle: acetone) of the same compound?
The T/C was 100 % of control.

What about the T/C (dose: 50.0 mg/kg/injection, schedule: Q01DX001 (ip), vehicle: saline) of the same compound?
The T/C was 153 % of control.

What about the T/C (dose: 50.0 mg/kg/injection, schedule: Q04DX003 (ip), vehicle: saline) of the same compound?
The T/C was 152 % of control and 158 % of control.

And the T/C (dose: 50.0 mg/kg/injection, schedule: Q04DX003 (ip), vehicle: water)?
Its T/C is 170 % of control.

And the T/C (dose: 65.0 mg/kg/injection, schedule: Q04DX003 (ip), vehicle: saline)?
The T/C was 98 % of control.

What about the T/C (dose: 66.0 mg/kg/injection, schedule: Q01DX001 (ip), vehicle: saline) of the same compound?
The T/C was 100 % of control and 111 % of control.

And the T/C (dose: 75.0 mg/kg/injection, schedule: Q01DX001 (ip), vehicle: water)?
The T/C was 150 % of control.

And the T/C (dose: 75.0 mg/kg/injection, schedule: Q04DX003 (ip), vehicle: saline)?
Its T/C is 163 % of control and 196 % of control.

What about the T/C (dose: 80.0 mg/kg/injection, schedule: Q01DX010 (ip), vehicle: saline) of the same compound?
The T/C was 90 % of control.

And the T/C (dose: 88.0 mg/kg/injection, schedule: Q01DX001 (ip), vehicle: saline)?
The T/C was 99 % of control and 108 % of control.

What about the T/C (dose: 100.0 mg/kg/injection, schedule: Q04DX003 (ip), vehicle: water) of the same compound?
The T/C was 190 % of control.

What about the T/C (dose: 108.0 mg/kg/injection, schedule: Q04DX003 (ip), vehicle: saline) of the same compound?
Its T/C is 98 % of control.

What about the T/C (dose: 160.0 mg/kg/injection, schedule: Q01DX001 (ip), vehicle: saline) of the same compound?
The T/C was 104 % of control and 108 % of control and 117 % of control.

And the T/C (dose: 175.0 mg/kg/injection, schedule: Q01DX001 (ip), vehicle: saline)?
The T/C was 150 % of control.

What about the T/C (dose: 180.0 mg/kg/injection, schedule: Q04DX003 (ip), vehicle: saline) of the same compound?
Its T/C is 100 % of control.

And the T/C (dose: 200.0 mg/kg/injection, schedule: Q04DX003 (ip), vehicle: water)?
The T/C was 100 % of control.

And the T/C (dose: 225.0 mg/kg/injection, schedule: Q01DX001 (ip), vehicle: saline)?
Its T/C is 117 % of control.

What about the T/C (dose: 240.0 mg/kg/injection, schedule: Q01DX001 (ip), vehicle: saline) of the same compound?
The T/C was 105 % of control and 106 % of control.

What about the T/C (dose: 250.0 mg/kg/injection, schedule: Q01DX001 (ip), vehicle: saline) of the same compound?
Its T/C is 90 % of control.

And the T/C (dose: 360.0 mg/kg/injection, schedule: Q01DX001 (ip), vehicle: saline)?
Its T/C is 109 % of control and 111 % of control.

And the T/C (dose: 400.0 mg/kg/injection, schedule: Q01DX001 (ip), vehicle: saline)?
Its T/C is 100 % of control.
